Experimental data taken from paper PMC8573357, “Exploring Multifunctional Bioactive Components from Podophyllum sinense Using Multi-Target Ultrafiltration” (Frontiers in Pharmacology, 2021).

Molecular target: ACE2 (Homo sapiens, UniProt Q9BYF1)
Experiment: affinity ultrafiltration-HPLC/MS from crude extract against heat-inactivated control; identity by standard
Type: binding

Chain of ACE2 (Q9BYF1 18-805): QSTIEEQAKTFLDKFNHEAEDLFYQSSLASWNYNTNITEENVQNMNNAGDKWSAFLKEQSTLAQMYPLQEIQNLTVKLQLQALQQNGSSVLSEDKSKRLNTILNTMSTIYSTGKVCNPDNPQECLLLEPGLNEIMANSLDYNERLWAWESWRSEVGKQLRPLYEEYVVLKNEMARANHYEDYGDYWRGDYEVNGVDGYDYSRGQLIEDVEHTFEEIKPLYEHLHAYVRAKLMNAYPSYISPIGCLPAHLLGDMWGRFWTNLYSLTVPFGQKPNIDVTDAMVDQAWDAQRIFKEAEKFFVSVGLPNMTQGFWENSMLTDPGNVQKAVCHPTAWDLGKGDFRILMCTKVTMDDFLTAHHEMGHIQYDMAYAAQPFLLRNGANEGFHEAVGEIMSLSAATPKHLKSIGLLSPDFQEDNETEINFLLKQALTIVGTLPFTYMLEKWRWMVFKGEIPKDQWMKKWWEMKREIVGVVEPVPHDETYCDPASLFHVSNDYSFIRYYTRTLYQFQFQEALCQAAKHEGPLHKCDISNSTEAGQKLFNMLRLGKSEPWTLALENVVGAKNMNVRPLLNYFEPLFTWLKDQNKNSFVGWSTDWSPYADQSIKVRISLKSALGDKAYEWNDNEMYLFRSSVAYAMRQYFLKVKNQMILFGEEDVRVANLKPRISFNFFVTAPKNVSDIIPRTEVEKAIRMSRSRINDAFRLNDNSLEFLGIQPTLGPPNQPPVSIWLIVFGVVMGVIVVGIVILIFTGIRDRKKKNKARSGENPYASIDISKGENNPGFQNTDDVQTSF

| Compound | EFs ^b (%) / ACE2 |
| --- | --- |
| O=c1c(O)c(-c2ccc(O)cc2)oc2cc(O)cc(O)c12 [Peak 7, Kaempferol] | 3.10 % (enrichment factor) |
| COc1cc2c(O)c3c(c(-c4ccc5c(c4)OCO5)c2cc1OC)C(=O)OC3 [Peak 10, Diphyllin] | 3.68 % (enrichment factor) |
